#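 Cells were grown in 96-well plates and exposed to each compound for 48 hours at five concentrations; endpoints were interpolated linearly between bracketing concentrations, or set to the highest concentration if not reached. GI50 = concentration required for 50% inhibition of growth.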 Activity calls are given as the source filed them. Cut-off read from the data, not from the text of the source: active = GI50 up to about 1.1 µM and inactive = higher.
# Legend:
# Test in all cases: NCI anticancer screen, dose series, 48 h
# 786-0 = test system: 786-0
# CCRF-CEM = test system: CCRF-CEM
# HCC 2998 = test system: HCC 2998
# HCT-116 = test system: HCT-116
# MDA-MB-231 = test system: MDA-MB-231
# MOLT-4 = test system: MOLT-4
# Malme-3M = test system: Malme-3M
# NCI-H23 = test system: NCI-H23
# NCI-H460 = test system: NCI-H460
# OVCAR-4 = test system: OVCAR-4
# OVCAR-8 = test system: OVCAR-8
# SF-295 = test system: SF-295
# SK-OV-3 = test system: SK-OV-3
# SNB-19 = test system: SNB-19
# SR = test system: SR
# TK-10 = test system: TK-10
# UO-31 = test system: UO-31
# SK-MEL-28 = test system: SK-MEL-28
Structure (SMILES),GI50 (786-0),GI50 (CCRF-CEM),GI50 (HCC 2998),GI50 (HCT-116),GI50 (MDA-MB-231),GI50 (MOLT-4),GI50 (Malme-3M),GI50 (NCI-H23),GI50 (NCI-H460),GI50 (OVCAR-4),GI50 (OVCAR-8),GI50 (SF-295),GI50 (SK-OV-3),GI50 (SNB-19),GI50 (SR),GI50 (TK-10),GI50 (UO-31),GI50 (SK-MEL-28)
Clc1ccc(Cc2nc3ccccc3nc2-c2cccc(Br)c2)cc1,1.75 µM (inactive),1.07 µM (active),1.62 µM (inactive),1.88 µM (inactive),3.6 µM (inactive),2.22 µM (inactive),4.45 µM (inactive),13.5 µM (inactive),18.3 µM (inactive),2.18 µM (inactive),2.92 µM (inactive),16.1 µM (inactive),16.8 µM (inactive),1.52 µM (inactive),1.75 µM (inactive),13.7 µM (inactive),1.87 µM (inactive),–
O=C(/C=C\c1ccc(-c2ccccc2)cc1)c1cccs1,11.6 µM (inactive),2.42 µM (inactive),> 28.4 µM (inactive),27.4 µM (inactive),48.5 µM (inactive),3.1 µM (inactive),–,22 µM (inactive),56.4 µM (inactive),> 54.2 µM (inactive),6.44 µM (inactive),29.7 µM (inactive),64.9 µM (inactive),> 59.2 µM (inactive),2.7 µM (inactive),46.2 µM (inactive),16.6 µM (inactive),> 100 µM (inactive)
O=C(Nc1ccn(C2CCC(CO)O2)c(=O)n1)c1ccccc1 (stereo unspecified),> 100 µM (inactive),34.1 µM (inactive),> 100 µM (inactive),> 100 µM (inactive),> 100 µM (inactive),> 100 µM (inactive),> 100 µM (inactive),> 100 µM (inactive),–,–,> 100 µM (inactive),> 100 µM (inactive),> 100 µM (inactive),> 100 µM (inactive),> 100 µM (inactive),> 100 µM (inactive),> 100 µM (inactive),> 100 µM (inactive)
O=C(NNC(c1ccccc1)C(F)(F)F)c1ccncc1 (stereo unspecified),> 100 µM (inactive),> 100 µM (inactive),> 100 µM (inactive),> 100 µM (inactive),> 100 µM (inactive),> 100 µM (inactive),> 100 µM (inactive),> 100 µM (inactive),> 100 µM (inactive),> 100 µM (inactive),> 100 µM (inactive),> 100 µM (inactive),–,> 100 µM (inactive),> 100 µM (inactive),> 100 µM (inactive),–,> 100 µM (inactive)
CC(C)(C)NC(=S)N/N=C/c1ccccn1,0.0545 µM (active),< 0.01 µM (active),6.84 µM (inactive),< 0.01 µM (active),0.223 µM (active),< 0.01 µM (active),3.72 µM (inactive),–,0.968 µM (active),–,0.612 µM (active),2.84 µM (inactive),1.96 µM (inactive),7.36 µM (inactive),< 0.01 µM (active),14.1 µM (inactive),0.259 µM (active),3.4 µM (inactive)
C=CCN1CN(c2ccccc2)C2(CCN(CCCC3(c4ccc(F)cc4)OCCO3)CC2)C1=O,17.7 µM (inactive),13.3 µM (inactive),19.7 µM (inactive),14.8 µM (inactive),18.3 µM (inactive),11 µM (inactive),16.5 µM (inactive),13.5 µM (inactive),–,–,16.1 µM (inactive),18.5 µM (inactive),19.6 µM (inactive),19.5 µM (inactive),12.1 µM (inactive),16.9 µM (inactive),9.93 µM (inactive),16.9 µM (inactive)
O=C1c2cc3ncsc3cc2C(=O)c2c(O)ccc(O)c21,> 100 µM (inactive),98.9 µM (inactive),> 100 µM (inactive),> 100 µM (inactive),> 100 µM (inactive),> 100 µM (inactive),> 100 µM (inactive),> 100 µM (inactive),> 100 µM (inactive),> 100 µM (inactive),> 100 µM (inactive),> 100 µM (inactive),–,> 100 µM (inactive),> 100 µM (inactive),> 100 µM (inactive),> 100 µM (inactive),> 100 µM (inactive)
COc1ccc2c(c1)C1c3ccccc3CCN1CCC2 (stereo unspecified),42.1 µM (inactive),38.5 µM (inactive),23.4 µM (inactive),32.1 µM (inactive),35.8 µM (inactive),35.6 µM (inactive),–,47.9 µM (inactive),–,> 100 µM (inactive),54.5 µM (inactive),23.8 µM (inactive),36.6 µM (inactive),55.2 µM (inactive),32.2 µM (inactive),> 100 µM (inactive),26.9 µM (inactive),74 µM (inactive)
Cc1ccc(-c2n[nH]c(=O)n2N2C(=O)C=CC2=O)cc1,> 100 µM (inactive),> 100 µM (inactive),> 100 µM (inactive),> 100 µM (inactive),> 100 µM (inactive),> 100 µM (inactive),> 100 µM (inactive),> 100 µM (inactive),> 100 µM (inactive),> 100 µM (inactive),> 100 µM (inactive),> 100 µM (inactive),> 100 µM (inactive),–,> 100 µM (inactive),> 100 µM (inactive),–,–
COC1OC(Cn2c(C)nc(Br)c2Br)C(O)C(O)C1O (stereo unspecified),> 100 µM (inactive),> 100 µM (inactive),> 100 µM (inactive),> 100 µM (inactive),> 100 µM (inactive),> 100 µM (inactive),> 100 µM (inactive),> 100 µM (inactive),> 100 µM (inactive),> 100 µM (inactive),> 100 µM (inactive),> 100 µM (inactive),> 100 µM (inactive),> 100 µM (inactive),> 10 µM (inactive),–,> 100 µM (inactive),> 100 µM (inactive)
c1ccc(-c2nc(-c3ccccc3SSc3ccccc3-c3nc(-c4ccccc4)nn3-c3ccccc3)n(-c3ccccc3)n2)cc1,> 100 µM (inactive),> 100 µM (inactive),> 100 µM (inactive),> 100 µM (inactive),> 100 µM (inactive),> 100 µM (inactive),> 100 µM (inactive),> 100 µM (inactive),> 100 µM (inactive),–,> 100 µM (inactive),> 100 µM (inactive),> 100 µM (inactive),> 100 µM (inactive),> 100 µM (inactive),> 100 µM (inactive),> 100 µM (inactive),> 100 µM (inactive)
CCOC(=O)CCC(NC(=O)Cc1ccc(Oc2nc3ccccc3nc2-c2cccs2)cc1)C(=O)OCC (stereo unspecified),2.49 µM (inactive),> 100 µM (inactive),32.2 µM (inactive),6.15 µM (inactive),4.08 µM (inactive),> 100 µM (inactive),22.7 µM (inactive),61.9 µM (inactive),34.4 µM (inactive),13.5 µM (inactive),1.82 µM (inactive),40.9 µM (inactive),–,9.29 µM (inactive),> 100 µM (inactive),19.2 µM (inactive),22.6 µM (inactive),> 100 µM (inactive)
CN(C)CCOc1ccc(-c2c(Oc3ccccc3)c(=O)oc3ccccc23)cc1,8.39 µM (inactive),0.459 µM (active),6.62 µM (inactive),4.83 µM (inactive),4.93 µM (inactive),4.13 µM (inactive),12.2 µM (inactive),14.1 µM (inactive),13.5 µM (inactive),27.2 µM (inactive),15.6 µM (inactive),4.42 µM (inactive),–,8.02 µM (inactive),2.83 µM (inactive),13.6 µM (inactive),7.33 µM (inactive),12.4 µM (inactive)
CC(C)(C)OC(=O)CN1CCNCCNCC1,> 100 µM (inactive),> 100 µM (inactive),–,> 100 µM (inactive),> 100 µM (inactive),> 100 µM (inactive),> 100 µM (inactive),> 100 µM (inactive),> 100 µM (inactive),> 100 µM (inactive),> 100 µM (inactive),> 100 µM (inactive),> 100 µM (inactive),> 100 µM (inactive),> 100 µM (inactive),> 100 µM (inactive),> 100 µM (inactive),> 100 µM (inactive)
CCc1nc(N)nc(N)c1-c1ccc(Cl)c(/N=C/N(C)C)c1,22.8 µM (inactive),30.3 µM (inactive),41.2 µM (inactive),10.3 µM (inactive),81.3 µM (inactive),34.8 µM (inactive),–,28.6 µM (inactive),5.22 µM (inactive),72.3 µM (inactive),44.4 µM (inactive),41.1 µM (inactive),> 100 µM (inactive),58.9 µM (inactive),31.1 µM (inactive),> 100 µM (inactive),> 100 µM (inactive),> 100 µM (inactive)
COC(=O)C1(Cc2ccc3c(c2)CCC3)Cc2cc3c(cc2C1)CCC3,51.4 µM (inactive),19.3 µM (inactive),27.2 µM (inactive),35.1 µM (inactive),22.9 µM (inactive),29.8 µM (inactive),–,27.3 µM (inactive),35 µM (inactive),32.2 µM (inactive),54.2 µM (inactive),33.3 µM (inactive),> 100 µM (inactive),68.1 µM (inactive),78.7 µM (inactive),> 100 µM (inactive),49.9 µM (inactive),60.1 µM (inactive)
c1ccc2c(c1)[n-]n1c3ccc4nonc4c3n[n+]21,> 100 µM (inactive),> 100 µM (inactive),> 100 µM (inactive),> 100 µM (inactive),> 100 µM (inactive),> 100 µM (inactive),> 100 µM (inactive),> 100 µM (inactive),93.3 µM (inactive),> 100 µM (inactive),> 100 µM (inactive),> 100 µM (inactive),–,> 100 µM (inactive),> 100 µM (inactive),–,> 100 µM (inactive),> 100 µM (inactive)
